US20060014231A1, “Methods and compositions to promote bone homeostasis” (priority 2004, published 2006)
“Also recorded” adds a separate entry of the source.

Key:
NR1H2 = target: T1, NR1H2 (Homo sapiens, UniProt P55055); assay: Alkaline phosphatase (AP) assay in MPCs infected with Ad-NR1H2 and treated with ligand; type: cell-based; conditions: MPCs infected with Ad-NR1H2, increasing ligand concentrations, MUP readout after 7, 10 and 13 days
T1 construct: amplification of the complete open reading frame from ATG start codon to the stop codon of drugable genes; expressed in transfected cells; host or cells: primary human bone-marrow MPCs, adenoviral transduction (Ad5-NR1H2 with Ad-hCAR)
T1 sequence (P55055 1-460): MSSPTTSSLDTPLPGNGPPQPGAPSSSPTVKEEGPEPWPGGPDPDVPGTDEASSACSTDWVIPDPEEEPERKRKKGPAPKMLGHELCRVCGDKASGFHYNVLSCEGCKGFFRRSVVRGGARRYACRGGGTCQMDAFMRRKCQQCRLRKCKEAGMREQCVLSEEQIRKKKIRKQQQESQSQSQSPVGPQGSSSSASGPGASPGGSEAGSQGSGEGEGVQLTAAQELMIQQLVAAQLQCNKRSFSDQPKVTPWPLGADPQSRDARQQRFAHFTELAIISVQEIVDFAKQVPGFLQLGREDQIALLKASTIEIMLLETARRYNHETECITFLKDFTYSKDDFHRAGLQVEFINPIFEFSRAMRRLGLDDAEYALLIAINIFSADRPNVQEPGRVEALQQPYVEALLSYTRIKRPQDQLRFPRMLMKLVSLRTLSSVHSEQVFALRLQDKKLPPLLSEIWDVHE
Procedure: (§1) After 6 days, medium is removed and replaced with fresh medium containing the same concentrations of the compound T0901317. Readouts of AP activity are performed at several time points after the start of the experiment, typically after 7, 10 and 13 days. Up-regulation of alkaline phosphatase activity is read as follows: medium is removed from the monolayers, 15 μl MUP is added to each well, the plates are incubated for 15 min at 37° C. and then read for AP activity using a fluorescence plate reader (Fluostar, BMG).
as §1, with “MPCs are seeded on day 0 at 1000 cells per well of a 384 well plate and co-infected the next day using AdC51-hCAR (MOI 250) and different MOIs of Ad5-NR1H2 (MOI 2000, 666). On day 1, 9 concentrations (1.52E-9M, 4.57E-9M, 1.37E-8M, 4.12E-8M, 1.23E-7M, 3.7E-7M, 1.11E-6M, 3.33E-6M, 1E-5M) of the compound GW3965 with fixed vehicle concentration (DMSO at final concentration of 0.161%) are added to the wells. After” for “After”, “GW3965.” for “T0901317.”
as §1, with “APD.” for “T0901317.”

primary human MPCs = assay: Mineralization assay (Alizarin RedS / Von Kossa stain); type: cell-based; conditions: MPCs with NR1H3 and ligand
Procedure: On day one, primary human MPCs are seeded in a 6 well plate (Costar or Nunc) at a density of 50,000 to 250,000 cells per well, typically at 100,000 cells per well. MPCs are co-infected one day later with AdC15-hCAR (MOI 750) and Ad-control (eGFP or BMP2) or hit-virus (Ad5) (at MOIs between 250 and 20,000, typically at MOIs 5000 and 2500). For Ad-GPCR or Ad-NHR experiments, cells can additionally be treated with specific ligands. These are added at the EC50 concentration and at concentrations 5-10 times higher and lower. Ligands are added 2-3 times per week. Medium supplemented with 100 μg/ml L-ascorbate and 10 mM beta-glycerophosphate, is refreshed 2 times a week. 20 to 30 days after the start of the experiment, cells are stained with Von Kossa stain or with Alizarin RedS stain.
The Alizarin RedS staining is carried out as follows: cells are washed once with PBS, fixed with 10% paraformaldehyde for 45 minutes at 4° C., and washed 2 times with PBS. Cells are incubated with 40 mM aqueous Alizarin RedS solution, pH 4.1-4.3 for 10 minutes followed by 5 washes with distilled water. Staining is evaluated and photographed using white light.

[1] = test system: calvarial skull bones (hemicalvaria); assay: Calvarial skull assay (bone organ culture, weight and histological readout); parameters: species or system CD1 mice
Procedure: CD1 pups are harvested around birth from CD1 female mice (received from Janvier (Le Genest St Isle, France) when they were 11 days pregnant). Pups are decapitated and the calvarial skull is dissected and split into 2 hemicalvaria. Hemicalvaria are blotted using sterile gauze, weighed and cultured in 24 well plates (MEMalpha or BGJb-Fitton-Jackson medium containing 50 μg/ml L-ascorbic acid (Sigma, A-4034), 5 mM β-glycerophosphate (Sigma, G-9891) and Penicillin-Streptomycin (Invitrogen Cat # 15140-122)). Small molecules (ligands, agonists, antagonists) are tested in at least three-fold at a minimum of 3 concentrations. Each small molecule is added to the medium on day 0 and added again when refreshing the medium (every 2-3 days). Three to 16 days after the start of the experiment, skulls are weighed again after blotting them dry using sterile gauze. The weight difference is calculated, expressed as percent weight change and the mean and standard deviations (SD) are calculated for the triplicate measurements. Data are analyzed using the Student's t-test.
The formation of new osteoid is analyzed histologically as follows: hemicalvaria are fixed in 10% buffered formalin for at least 2 days, decalcified in 10% EDTA overnight, processed through graded alcohols and embedded in paraffin wax. Three to 10 μm sections are prepared of the calvaria and stained with hematoxylin and eosin (H&E). Healthy cells, dead cells, old and new bone, and collagen are identified by their distinctive morphology and colouring observed after H&E staining. The surfaces taken by these are measured stereologically (μm^2 readout) and termed Osteoblast area, Debris area, Native and New bone area, Collagen area and Total area (sum of the previous 5 areas), respectively. In addition, the thickness (μm readout) is measured at 8 positions, evenly spaced over the section.
The histological readout of the calvarial skull assay is developed using known osteogenic agents. Hemicalvaria were treated with recombinant human parathyroid hormone (rhPTH).
T0901317 is added to the culture medium of the dissected hemicalvaria at the day of dissection at several doses (19.5, 78.1 and 313 nM), in fourfold. The concentration of the solvent (vehicle), DMSO, is fixed at a final concentration of 0.05%. The medium, containing T0901317 or vehicle control is refreshed every 2-3 days. Hemicalvaria are harvested 7 days after the initiation of the experiment and subjected to the histological analysis described above.

[2] = 19.5, 78.1 and 313 nM, 7 days, H&E histology
[3] = 19.5, 78.1 and 313 nM, 7 days, H&E histology, versus 0.05% DMSO

O=S(=O)(c1ccccc1)N(CC(F)(F)F)c1ccc(C(O)(C(F)(F)F)C(F)(F)F)cc1 [T0901317]
up-regulation of alkaline phosphatase (AP) activity (NR1H2): dose-response relation | mineralization (primary human MPCs): score well | thickness [1, 2]: Dose-response activity | total area (sum of all areas measured) [1, 2]: Dose-response activity | collagen area [1, 3]: Statistically significant increases | new bone area [1, 3]: Statistically significant increases | osteoblast area [1, 3]: Statistically significant increases; also recorded: Dose-response activity | weight change of calvarial skull explants ([1]; figure legends FIG. 17 and FIG. 18): Weight increases
